Data: patent publication US8889726B2, “Chemica compounds” (priority 2011, dated 2014)
Where two headings read alike, the source gives them in different places.

Legend:
[1] = system: HCV genotype 1b subgenomic replicon (ET cell line); experiment: HCV replicon assay, genotype 1b (luciferase); assay type: cell-based; details: genotype 1b replicon ET cell line, luciferase activity at 48 hours
Experimental: (§1) Protocol for Testing and Data Analysis of Compounds in the HCV Replicon Assay
(§2) Compounds were assayed for activity against HCV using the genotype 1a and 1b subgenomic replicon model systems. Stable cell lines bearing the genotype 1a and 1b replicons were used for screening of compounds. Both replicons are bicistronic and contain the firefly luciferase gene. The ET cell line is stably transfected with RNA transcripts harboring a I389luc-ubi-neo/NS3-3′/ET replicon with firefly luciferase-ubiquitin-neomycin phosphotransferase fusion protein and EMCV-IRES driven NS3-5B polyprotein containing the cell culture adaptive mutations (E1202G; T1280I; K1846T) (Krieger at al, 2001 and unpublished). The genotype 1a replicon is a stable cell line contains the H77 NS3-5B polyprotein sequence, modified to contain the firefly luciferase gene and encode for neomycin resistance. The genotype 1a replicon contains several adaptive changes (NS4B Q31H, NS5A K68R, NS5A S232I). The cells were grown in DMEM, supplemented with 10% fetal calf serum, 2 mM Glutamine, Penicillin (100 IU/mL)/Streptomycin (100 μg/mL), lx nonessential amino acids, and 250-500 μg/mL G418 (“Geneticin”). They were all available through Life Technologies (Bethesda, Md.). The cells were plated at 5×10^3 cells/well in 384 well plates containing compounds. The final concentration of compounds ranged between 0.03 pM to […] and the final DMSO concentration of 0.5-1%.
(§3) Luciferase activity was measured 48 hours later by adding a Steady glo reagent (Promega, Madison, Wis.). Percent inhibition of replication data was plotted relative to no compound control. Under the same condition, cytotoxicity of the compounds was determined using cell titer glo (Promega, Madison, Wis.). EC50s were determined from an 11 point dose response curve using 3-4-fold serial dilution for each compound, which spans a concentration range >1000 fold. The level of inhibition for each compound was determined with Activity Base or with BioAssay plus the Excel XC50 module. Percent inhibition was determined with the following equation where the cross-talk corrected value is the value from the test well, the compound positive control mean is the average value of the wells with no compound present, and the DMSO negative control mean is the average value of the wells with DMSO but no cells present.
(§4) [formula] These normalized values are exported to EC50 where they are plotted against the molar compound concentrations using the standard four parameter logistic equation:
(§5) [formula] Where: • A=minimum y D=slope factor • B=maximum y x=log10 compound concentration [M] • C=log10EC50 pEC50=−C

[2] = system: HCV genotype 1a subgenomic replicon; experiment: HCV replicon assay, genotype 1a (luciferase); assay type: cell-based; details: read-out: Replicon 1A EC50
Experimental: as §1, §2, §3, §4, §5

| SMILES | EC50 ([1]; Hepatitis C virus) [pM] | EC50 ([2]; Hepatitis C virus, 48 h) [pM] | EC50 [1] [pM] | EC50 ([2]; genotype 1a replicon stable cell line (H77 NS3-5B), luciferase activity at 48 hours) [pM] |
| --- | --- | --- | --- | --- |
| COC(=O)N[C@H](C(=O)N1[C@@H]2CCC[C@@H]2C[C@H]1c1ncc(-c2ccc3c(c2)C(F)(F)c2cc(-c4cnc([C@@H]5C[C@@H]6CCC[C@@H]6N5C(=O)[C@@H](NC(=O)OC)[C@@H](C)OC)[nH]4)ccc2-3)[nH]1)[C@@H](C)OC [Example 8, Dimethyl ((2S,2′S,3R,3′R)-((2S,2′S,3aS,3a′S,6aS,6a′S)-2,2′-(5,5′-(9,9-difluoro-9H-fluorene-2,7-diyl)bis(1H-imidazole-5,2-diyl))bis(hexahydrocyclopenta[b]pyrrole-2,1(2H)-diyl))bis(3-methoxy-1-oxobutane-2,1-diyl))dicarbamate] | 16 | 32 |  |  |
| COC(=O)N[C@H](C(=O)N1[C@H](c2ncc(-c3ccc4c(c3)-c3ccc(-c5cnc([C@@H]6C[C@@H]7CCC[C@@H]7N6C(=O)[C@@H](NC(=O)OC)[C@@H](C)O)[nH]5)cc3-4)[nH]2)C[C@@H]2CCC[C@@H]21)[C@@H](C)O [Example 1] | 6 | 11 |  |  |
| COC(=O)N[C@H](C(=O)N1[C@H](c2ncc(-c3ccc4c(c3)Cc3cc(-c5cnc([C@@H]6C[C@H]7CCC[C@H]7N6C(=O)[C@H](NC(=O)OC)[C@H](C)OC)[nH]5)ccc3-4)[nH]2)C[C@@H]2CCC[C@@H]21)[C@@H](C)OC [Example 4] | 20 | 40 |  |  |
| COC(=O)N[C@H](C(=O)N1[C@H](c2ncc(-c3ccc4c(c3)CCc3cc(-c5cnc([C@@H]6C[C@H]7CCC[C@H]7N6C(=O)[C@H](NC(=O)OC)[C@H](C)OC)[nH]5)ccc3-4)[nH]2)C[C@@H]2CCC[C@@H]21)[C@@H](C)OC [Example 6, Dimethyl ((2S,2′S,3R,3′R)-((2S,2′S,3aS,3a′S,6aS,6a′S)-2,2′-(5,5′-(9,10-dihydrophenanthrene-2,7-diyl)bis(1H-imidazole-5,2-diyl))bis(hexahydrocyclopenta[b]pyrrole-2,1(2H)-diyl))bis(3-methoxy-1-oxobutane-2,1-diyl))dicarbamate] | 16 | 16 |  |  |
| COC(=O)N[C@H](C(=O)N1[C@H](c2ncc(-c3ccc4c(c3)Cc3ccc(-c5cnc([C@@H]6C[C@H]7CCC[C@H]7N6C(=O)[C@H](NC(=O)OC)[C@H](C)OC)[nH]5)cc3C4)[nH]2)C[C@@H]2CCC[C@@H]21)[C@@H](C)OC [Example 5, dimethyl ((2S,2′S,3R,3′R)-((2S,2′S,3aS,3a′S,6aS,6a′S)-2,2′-(5,5′-(9,10-dihydroanthracene-2,6-diyl)bis(1H-imidazole-5,2-diyl))bis(hexahydrocyclopenta[b]pyrrole-2,1(2H)-diyl))bis(3-methoxy-1-oxobutane-2,1-diyl))dicarbamate] | 20 | 32 |  |  |
| COC(=O)N[C@H](C(=O)N1[C@@H]2CCC[C@@H]2C[C@H]1c1ncc(-c2ccc3c(c2)S(=O)(=O)c2cc(-c4cnc([C@@H]5C[C@@H]6CCC[C@@H]6N5C(=O)[C@@H](NC(=O)OC)[C@@H](C)OC)[nH]4)ccc2-3)[nH]1)[C@@H](C)OC [Example 9] | 32 | 80 |  |  |
| COC(=O)N[C@H](C(=O)N1[C@@H]2CCC[C@@H]2C[C@H]1c1ncc(-c2ccc3c(c2)Oc2ccc(-c4cnc([C@@H]5C[C@@H]6CCC[C@@H]6N5C(=O)[C@@H](NC(=O)OC)[C@@H](C)OC)[nH]4)cc2O3)[nH]1)[C@@H](C)OC [Example 10, Dimethyl ((2S,2′S,3R,3′R)-((2S,2′S,3aS,3a′S,6aS,6a′S)-2,2′-(5,5′-(dibenzo[b,e][1,4]dioxine-2,7-diyl)bis(1H-imidazole-5,2-diyl))bis(hexahydrocyclopenta[b]pyrrole-2,1(2H)-diyl))bis(3-methoxy-1-oxobutane-2,1-diyl))dicarbamate] | 10 | 10 |  |  |
| COC(=O)N[C@H](C(=O)N1[C@H](c2nc(-c3ccc4c(c3)-c3ccc(-c5c[nH]c([C@@H]6C[C@@H]7CCC[C@@H]7N6C(=O)[C@@H](NC(=O)OC)[C@@H](C)OC)n5)cc3-4)c[nH]2)C[C@@H]2CCC[C@@H]21)[C@@H](C)O [Example 3, Methyl [(1S,2R)-1-{[(2S,3aS,6aS)-2-[4-(6-{2-[(2S,3aS,6aS)-1-((2S,3R)-3-hydroxy-2-{[(methyloxy)carbonyl]amino}butanoyl)octahydrocyclopenta[b]pyrrol-2-yl]-1H-imidazol-4-yl}-2-biphenylenyl)-1H-imidazol-2-yl]hexahydrocyclopenta[b]pyrrol-1(2H)-yl]carbonyl}-2-(methyloxy)propyl]carbamate] | 8 | 13 |  |  |
| COC(=O)N[C@H](C(=O)N1[C@H](c2ncc(-c3ccc4c(c3)-c3ccc(-c5cnc([C@@H]6C[C@@H]7CCC[C@@H]7N6C(=O)[C@@H](NC(=O)OC)[C@@H](C)OC)[nH]5)cc3-4)[nH]2)C[C@@H]2CCC[C@@H]21)[C@@H](C)OC [Example 2, dimethyl ((2S,2′S,3R,3′R)-((2S,2′S,3aS,3a′S,6aS,6a′S)-2,2′-(5,5′-(biphenylene-2,6-diyl)bis(1H-imidazole-5,2-diyl))bis(hexahydrocyclopenta[b]pyrrole-2,1(2H)-diyl))bis(3-methoxy-1-oxobutane-2,1-diyl))dicarbamate] | 8 | 10 |  |  |
| COC(=O)N[C@H](C(=O)N1[C@H](c2ncc(-c3ccc4c5ccc(-c6cnc([C@@H]7C[C@@H]8CCC[C@@H]8N7C(=O)[C@@H](NC(=O)OC)[C@@H](C)OC)[nH]6)cc5n(C)c4c3)[nH]2)C[C@@H]2CCC[C@@H]21)[C@@H](C)OC [Example 7, dimethyl ((2S,2′S,3R,3′R)-((2S,2′S,3aS,3a′S,6aS,6a′S)-2,2′-(5,5′-(9-methyl-9H-carbazole-2,7-diyl)bis(1H-imidazole-5,2-diyl))bis(hexahydrocyclopenta[b]pyrrole-2,1(2H)-diyl))bis(3-methoxy-1-oxobutane-2,1-diyl))dicarbamate] |  |  | 32 | 160 |
